Assays:
Type in all cases: in vivo
[1] = test system: Bemisia tabaci (Cotton White Fly); assay: Bemisia tabaci feeding/contact activity, cotton leaf discs; conditions: foliar, 144 h, application rate of 200 ppm, 6 days after incubation, adult white flies
Experimental: Example B1: Bemisia tabaci (Cotton White Fly): Feeding/Contact Activity
Cotton leaf discs were placed on agar in 24-well microtiter plates and sprayed with aqueous test solutions prepared from 10′000 ppm DMSO stock solutions. After drying the leaf discs were infested with adult white flies. The samples were checked for mortality 6 days after incubation.

[2] = test system: Diabrotica balteata (Corn Root Worm); assay: Diabrotica balteata, maize sprouts on agar, L2 larvae; conditions: 96 h, application rate of 200 ppm, 4 days after infestation, read-out: effect in at least one of the two categories (mortality or growth inhibition)
Experimental: Example B2: Diabrotica balteata (Corn Root Worm)
Maize sprouts placed onto an agar layer in 24-well microtiter plates were treated with aqueous test solutions prepared from 10′000 ppm DMSO stock solutions by spraying. After drying, the plates were infested with L2 larvae (6 to 10 per well). The samples were assessed for mortality and growth inhibition in comparison to untreated samples 4 days after infestation.

[3] = test system: Euschistus heros (Neotropical Brown Stink Bug); assay: Euschistus heros, soybean leaves on agar, N2 nymphs; conditions: 120 h, application rate of 200 ppm, 5 days after infestation, read-out: effect in at least one of the two categories (mortality or growth inhibition)
Experimental: Example B3: Euschistus heros (Neotropical Brown Stink Bug)
Soybean leaves on agar in 24-well microtiter plates were sprayed with aqueous test solutions prepared from 10′000 ppm DMSO stock solutions. After drying the leaves were infested with N2 nymphs. The samples were assessed for mortality and growth inhibition in comparison to untreated samples 5 days after infestation.

[4] = test system: Plutella xylostella (Diamond Back Moth); assay: Plutella xylostella, artificial diet, L2 larvae; conditions: 120 h, application rate of 200 ppm, 5 days after infestation, read-out: effect in at least one of the two categories (mortality or growth inhibition)
Experimental: Example B7: Plutella xylostella (Diamond Back Moth)
24-well microtiter plates with artificial diet were treated with aqueous test solutions prepared from 10′000 ppm DMSO stock solutions by pipetting. After drying, the plates were infested with L2 larvae (10 to 15 per well). The samples were assessed for mortality and growth inhibition in comparison to untreated samples 5 days after infestation.

[5] = test system: Spodoptera littoralis (Egyptian Cotton Leaf Worm); assay: Spodoptera littoralis, cotton leaf discs, L1 larvae; conditions: foliar, 72 h, application rate of 200 ppm, 3 days after infestation
Experimental: Example B8: Spodoptera littoralis (Egyptian Cotton Leaf Worm)
Cotton leaf discs were placed onto agar in 24-well microtiter plates and sprayed with aqueous test solutions prepared from 10′000 ppm DMSO stock solutions. After drying the leaf discs were infested with five L1 larvae. The samples were assessed for mortality, anti-feeding effect, and growth inhibition in comparison to untreated samples 3 days after infestation. Control of Spodoptera littoralis by a test sample is given when at least one of the categories mortality, anti-feedant effect, and growth inhibition is higher than the untreated sample.

[6] = test system: Myzus persicae (Green Peach Aphid); assay: Myzus persicae feeding/contact activity, sunflower leaf discs; conditions: foliar, 144 h, application rate of 200 ppm, 6 days after infestation
Experimental: Example B5: Myzus persicae (Green Peach Aphid): Feeding/Contact Activity
Sunflower leaf discs were placed onto agar in a 24-well microtiter plate and sprayed with aqueous test solutions prepared from 10′000 ppm DMSO stock solutions. After drying, the leaf discs were infested with an aphid population of mixed ages. The samples were assessed for mortality 6 days after infestation.

[7] = test system: Spodoptera littoralis (Egyptian Cotton Leaf Worm); assay: Spodoptera littoralis, uptake by lettuce roots from agar, eggs; conditions: 144 h, test rate of 12.5 ppm, 6 days after infestation, read-out: effect in at least one of the three categories (mortality, anti-feeding, or growth inhibition)
Text: Example B9: Spodoptera littoralis (Egyptian Cotton Leaf Worm)
Test compounds were applied by pipette from 10′000 ppm DMSO stock solutions into 24-well plates and mixed with agar. Lettuce seeds were placed onto the agar and the multi well plate was closed by another plate which contained also agar. After 7 days the compound was absorbed by the roots and the lettuce grew into the lid plate. The lettuce leaves were then cut off into the lid plate. Spodoptera eggs were pipetted through a plastic stencil onto a humid gel blotting paper and the lid plate was closed with it. The samples were assessed for mortality, anti-feedant effect and growth inhibition in comparison to untreated samples 6 days after infestation.

[8] = test system: Frankliniella occidentalis (Western Flower Thrips); assay: Frankliniella occidentalis feeding/contact activity, sunflower leaf discs; conditions: foliar, 168 h, application rate of 200 ppm, 7 days after infestation, population of mixed ages
Experimental: Example B4: Frankliniella occidentalis (Western Flower Thrips): Feeding/Contact Activity
Sunflower leaf discs were placed on agar in 24-well microtiter plates and sprayed with aqueous test solutions prepared from […] stock solutions. After drying the leaf discs were infested with a Frankliniella population of mixed ages. The samples were assessed for mortality 7 days after infestation.

[9] = test system: Myzus persicae (Green Peach Aphid); assay: Myzus persicae systemic activity, pea seedling roots in test solution; conditions: 144 h, test rate of 24 ppm, 6 days after placing seedlings into test solutions
Experimental: Example B6: Myzus persicae (Green Peach Aphid): Systemic Activity
Roots of pea seedlings infested with an aphid population of mixed ages were placed directly into aqueous test solutions prepared from 10′000 DMSO stock solutions. The samples were assessed for mortality 6 days after placing seedlings into test solutions.

CCn1c(C(F)(F)F)cc2nc(-c3nc(C4CC4)ccc3S(=O)(=O)CC)n(C)c2c1=O [Compound P11]
≥ 80%: mortality at 200 ppm [1]

CCn1c(C(F)(F)F)cc2nc(-c3nc(-n4ccc(C(F)(F)F)n4)ccc3S(=O)(=O)CC)n(C)c2c1=O [Compound P3, 5-ethyl-2-[3-ethylsulfonyl-6-[3-(trifluoromethyl)pyrazol-1-yl]-2-pyridyl]-3-methyl-6-(trifluoromethyl)imidazo[4,5-c]pyridin-4-one]
≥ 80%: mortality at 200 ppm [1] | percent effect (mortality or growth inhibition) at 200 ppm [2] | percent effect (mortality or growth inhibition) at 200 ppm [3] | percent effect (mortality or growth inhibition) at 200 ppm [4] | percent control (mortality, anti-feedant effect or growth inhibition) at 200 ppm [5]

CCn1c(C(F)(F)F)cc2nc(-c3nc(-c4cccc(SC)c4)ccc3S(=O)(=O)CC)n(C)c2c1=O [Compound P29]
≥ 80%: mortality at 200 ppm [1] | percent effect (mortality or growth inhibition) at 200 ppm [2] | percent effect (mortality or growth inhibition) at 200 ppm [3] | mortality at 200 ppm [6] | percent effect (mortality or growth inhibition) at 200 ppm [4] | percent control (mortality, anti-feedant effect or growth inhibition) at 200 ppm [5]

CCn1c(C(F)(F)F)cc2nc(-c3nc(-c4ccccc4)ccc3S(=O)(=O)CC)n(C)c2c1=O [Compound P18]
≥ 80%: percent effect (mortality or growth inhibition) at 200 ppm [2] | percent effect (mortality or growth inhibition) at 200 ppm [3] | mortality at 200 ppm [6] | percent effect (mortality or growth inhibition) at 200 ppm [4] | percent control (mortality, anti-feedant effect or growth inhibition) at 200 ppm [5] | percent effect (mortality, anti-feeding or growth inhibition) at 12.5 ppm [7]

CCn1c(C(F)(F)F)cc2nc(-c3nc(-c4cncn4C)ccc3S(=O)(=O)CC)n(C)c2c1=O [Compound P28]
≥ 80%: mortality at 200 ppm [1] | percent effect (mortality or growth inhibition) at 200 ppm [2] | percent effect (mortality or growth inhibition) at 200 ppm [4] | percent control (mortality, anti-feedant effect or growth inhibition) at 200 ppm [5]

CCn1c(C(F)(F)F)cc2nc(-c3nc(-c4cc(F)ccc4F)ccc3S(=O)(=O)CC)n(C)c2c1=O [Compound P37]
≥ 80%: mortality at 200 ppm [1] | percent effect (mortality or growth inhibition) at 200 ppm [2] | percent effect (mortality or growth inhibition) at 200 ppm [3] | percent effect (mortality or growth inhibition) at 200 ppm [4] | percent control (mortality, anti-feedant effect or growth inhibition) at 200 ppm [5] | percent effect (mortality, anti-feeding or growth inhibition) at 12.5 ppm [7]

CCn1c(C(F)(F)F)cc2nc(-c3nc(C4CC4)ccc3S(=O)(=O)CC)n(C)c2c1=O [Compound P39]
≥ 80%: percent effect (mortality or growth inhibition) at 200 ppm [2] | percent effect (mortality or growth inhibition) at 200 ppm [3] | mortality at 200 ppm [6] | percent effect (mortality or growth inhibition) at 200 ppm [4] | percent control (mortality, anti-feedant effect or growth inhibition) at 200 ppm [5] | percent effect (mortality, anti-feeding or growth inhibition) at 12.5 ppm [7]

CCn1c(C(F)(F)F)cc2nc(-c3nc(-c4cnc(OC)nc4)ccc3S(=O)(=O)CC)n(C)c2c1=O [Compound P20]
≥ 80%: percent effect (mortality or growth inhibition) at 200 ppm [2] | percent effect (mortality or growth inhibition) at 200 ppm [3] | mortality at 200 ppm [8] | mortality at 200 ppm [6] | percent effect (mortality or growth inhibition) at 200 ppm [4] | percent control (mortality, anti-feedant effect or growth inhibition) at 200 ppm [5] | percent effect (mortality, anti-feeding or growth inhibition) at 12.5 ppm [7]

CCn1c(C(F)(F)F)cc2nc(-c3nc(-c4ccc(C#N)cc4)ccc3S(=O)(=O)CC)n(C)c2c1=O [Compound P15]
≥ 80%: percent effect (mortality or growth inhibition) at 200 ppm [2] | percent effect (mortality or growth inhibition) at 200 ppm [3] | percent effect (mortality or growth inhibition) at 200 ppm [4] | percent control (mortality, anti-feedant effect or growth inhibition) at 200 ppm [5] | percent effect (mortality, anti-feeding or growth inhibition) at 12.5 ppm [7]

CCn1c(C(F)(F)F)cc2nc(-c3nc(-c4cncnc4)ccc3S(=O)(=O)CC)n(C)c2c1=O [Compound P21]
≥ 80%: mortality at 200 ppm [1] | percent effect (mortality or growth inhibition) at 200 ppm [2] | percent effect (mortality or growth inhibition) at 200 ppm [3] | mortality at 200 ppm [6] | percent effect (mortality or growth inhibition) at 200 ppm [4] | percent control (mortality, anti-feedant effect or growth inhibition) at 200 ppm [5] | percent effect (mortality, anti-feeding or growth inhibition) at 12.5 ppm [7]

CCn1c(C(F)(F)F)cc2nc(-c3nc(-c4ccncc4)ccc3S(=O)(=O)CC)n(C)c2c1=O [Compound P13]
≥ 80%: percent effect (mortality or growth inhibition) at 200 ppm [2] | mortality at 200 ppm [8] | percent effect (mortality or growth inhibition) at 200 ppm [4] | percent control (mortality, anti-feedant effect or growth inhibition) at 200 ppm [5]

CCn1c(C(F)(F)F)cc2nc(-c3nc(-c4cccc(F)c4)ccc3S(=O)(=O)CC)n(C)c2c1=O [Compound P14]
≥ 80%: mortality at 200 ppm [1] | percent effect (mortality or growth inhibition) at 200 ppm [2] | percent effect (mortality or growth inhibition) at 200 ppm [3] | mortality at 200 ppm [6] | percent effect (mortality or growth inhibition) at 200 ppm [4] | percent control (mortality, anti-feedant effect or growth inhibition) at 200 ppm [5] | percent effect (mortality, anti-feeding or growth inhibition) at 12.5 ppm [7]

CCn1c(C(F)(F)F)cc2nc(-c3nc(-c4ccc(C(F)(F)F)nc4)ccc3S(=O)(=O)CC)n(C)c2c1=O [Compound P16]
≥ 80%: mortality at 200 ppm [1] | percent effect (mortality or growth inhibition) at 200 ppm [2] | percent effect (mortality or growth inhibition) at 200 ppm [3] | mortality at 200 ppm [8] | mortality at 200 ppm [6] | percent effect (mortality or growth inhibition) at 200 ppm [4] | percent control (mortality, anti-feedant effect or growth inhibition) at 200 ppm [5]

CCn1c(C(F)(F)F)cc2nc(-c3nc(-c4cc(F)cc(F)c4)ccc3S(=O)(=O)CC)n(C)c2c1=O [Compound P12]
≥ 80%: percent effect (mortality or growth inhibition) at 200 ppm [2] | percent effect (mortality or growth inhibition) at 200 ppm [3] | mortality at 200 ppm [6] | percent effect (mortality or growth inhibition) at 200 ppm [4] | percent control (mortality, anti-feedant effect or growth inhibition) at 200 ppm [5] | percent effect (mortality, anti-feeding or growth inhibition) at 12.5 ppm [7]

CCn1c(C(F)(F)F)cc2nc(-c3nc(-c4cnco4)ccc3S(=O)(=O)CC)n(C)c2c1=O [Compound P38]
≥ 80%: percent effect (mortality or growth inhibition) at 200 ppm [2] | mortality at 200 ppm [6] | mortality at 24 ppm [9] | percent effect (mortality or growth inhibition) at 200 ppm [4] | percent control (mortality, anti-feedant effect or growth inhibition) at 200 ppm [5]
